pIC50: −log10 of the molar value.
Target: PI3Kδ (p110δ/p85α) (Homo sapiens (Human), UniProt O00329)
Assay: PI3Kδ Scintillation Proximity Assay (Example A3)
Format: biochemical
Conditions: 20 μM ATP, 20 μM PIP2, 4 nM PI3Kδ, read-out: PI3Kδ SPA IC50
Protocol: [γ-^33P]ATP (10 mCi/mL) was purchased from PerkinElmer (Waltham, Mass.). […] PI3Kδ (p110δ/p85α) was purchased from Millipore (Bedford, Mass.). ATP, MgCl2, DTT, EDTA, MOPS and CHAPS were purchased from Sigma-Aldrich (St. Louis, Mo.). Wheat Germ Agglutinin (WGA) YSi SPA Scintillation Beads was purchased from GE healthcare life sciences (Piscataway, N.J.).
The kinase reaction was conducted in polystyrene 384-well matrix white plate from Thermo Fisher Scientific in a final volume of 25 μL. Inhibitors were first diluted serially in DMSO and added to the plate wells before the addition of other reaction components. The final concentration of DMSO in the assay was 0.5%. The PI3K assays were carried out at room temperature in 20 mM MOPS, pH 6.7, 10 mM MgCl2, 5 mM DTT and CHAPS 0.03%. Reactions were initiated by the addition of ATP, the final reaction mixture consisted of 20 μM PIP2, 20 μM ATP, 0.2 μCi [γ-^33P] ATP, 4 nM PI3Kδ. […] 25 mM EDTA, 400 μM ATP. The final concentration of SPA beads was 1.0 mg/mL. After the plate sealing, plates were shaken overnight at room temperature and centrifuged at 1800 rpm for 10 minutes, the radioactivity of the product was determined by scintillation counting on Topcount (PerkinElmer). IC50 determination was performed by fitting the curve of percent control activity versus the log of the inhibitor concentration using the GraphPad Prism 3.0 software.

Chain of PI3Kδ (p110δ/p85α) (O00329 whole entry): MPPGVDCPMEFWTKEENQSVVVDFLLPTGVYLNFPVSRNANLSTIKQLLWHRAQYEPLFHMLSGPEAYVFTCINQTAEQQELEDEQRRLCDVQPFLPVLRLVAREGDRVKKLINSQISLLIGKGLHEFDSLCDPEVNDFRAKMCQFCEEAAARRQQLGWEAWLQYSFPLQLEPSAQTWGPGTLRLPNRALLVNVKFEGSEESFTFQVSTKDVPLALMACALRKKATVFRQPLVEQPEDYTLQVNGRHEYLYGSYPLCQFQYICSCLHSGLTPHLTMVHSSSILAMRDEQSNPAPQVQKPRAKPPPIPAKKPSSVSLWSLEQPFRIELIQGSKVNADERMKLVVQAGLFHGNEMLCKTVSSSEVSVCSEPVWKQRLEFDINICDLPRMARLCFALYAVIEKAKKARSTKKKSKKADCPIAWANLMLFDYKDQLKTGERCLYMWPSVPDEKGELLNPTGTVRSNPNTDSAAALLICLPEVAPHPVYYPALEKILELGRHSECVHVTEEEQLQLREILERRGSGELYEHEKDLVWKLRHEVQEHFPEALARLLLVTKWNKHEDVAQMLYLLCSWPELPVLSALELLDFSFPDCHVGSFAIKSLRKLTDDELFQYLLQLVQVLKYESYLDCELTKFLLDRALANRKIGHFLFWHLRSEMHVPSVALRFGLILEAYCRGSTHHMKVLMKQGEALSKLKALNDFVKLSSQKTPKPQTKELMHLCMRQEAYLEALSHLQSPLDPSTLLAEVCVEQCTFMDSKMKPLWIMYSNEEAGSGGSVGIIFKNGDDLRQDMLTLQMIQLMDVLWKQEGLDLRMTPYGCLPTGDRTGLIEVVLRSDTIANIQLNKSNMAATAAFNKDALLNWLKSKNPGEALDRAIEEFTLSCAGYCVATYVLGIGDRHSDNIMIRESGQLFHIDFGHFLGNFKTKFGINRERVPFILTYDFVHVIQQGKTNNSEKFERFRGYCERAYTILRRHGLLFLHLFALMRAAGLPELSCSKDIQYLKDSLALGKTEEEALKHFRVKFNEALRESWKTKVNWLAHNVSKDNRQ
Chain of PI3Kδ (p110δ/p85α) (P27986 whole entry partner): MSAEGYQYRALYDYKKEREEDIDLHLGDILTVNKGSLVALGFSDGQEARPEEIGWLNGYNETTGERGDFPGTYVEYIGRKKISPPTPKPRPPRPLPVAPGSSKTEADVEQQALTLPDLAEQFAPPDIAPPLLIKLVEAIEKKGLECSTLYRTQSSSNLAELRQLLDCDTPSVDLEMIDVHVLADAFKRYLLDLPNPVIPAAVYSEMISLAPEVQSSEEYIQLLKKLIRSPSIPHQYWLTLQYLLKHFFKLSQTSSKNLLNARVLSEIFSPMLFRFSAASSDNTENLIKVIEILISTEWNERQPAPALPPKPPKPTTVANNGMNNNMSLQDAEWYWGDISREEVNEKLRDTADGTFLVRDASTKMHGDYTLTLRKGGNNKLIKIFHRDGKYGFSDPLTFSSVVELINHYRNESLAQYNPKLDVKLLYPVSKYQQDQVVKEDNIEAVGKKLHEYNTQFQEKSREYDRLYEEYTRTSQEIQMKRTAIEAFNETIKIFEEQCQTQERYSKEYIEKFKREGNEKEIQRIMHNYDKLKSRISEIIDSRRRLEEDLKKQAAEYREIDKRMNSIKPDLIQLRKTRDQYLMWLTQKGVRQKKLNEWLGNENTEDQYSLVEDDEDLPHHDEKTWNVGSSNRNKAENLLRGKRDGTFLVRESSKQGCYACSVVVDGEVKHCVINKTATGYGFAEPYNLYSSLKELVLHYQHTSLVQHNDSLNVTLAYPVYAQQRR

Molecule	pIC50
COc1c(C(C)n2nc(C)c3c(N)ncnc32)cc(Cl)c(C)c1C1CN(CC2CC2)C1 (racemic) [Example 4, 1-(1-{5-Chloro-3-[1-(cyclopropylmethyl)azetidin-3-yl]-2-methoxy-4-methylphenyl}ethyl)-3-methyl-1H-pyrazolo[3,4-d]pyrimidin-4-amine bis(trifluoroacetate)]	> 8.00
COc1c(C(C)n2nc(C)c3c(N)ncnc32)cc(Cl)c(C)c1C1CN(C)C1 (racemic) [Example 5, 1-{1-[5-chloro-2-methoxy-4-methyl-3-(1-methylazetidin-3-yl)phenyl]ethyl}-3-methyl-1H-pyrazolo[3,4-d]pyrimidin-4-amine]	> 8.00
COc1c(C(C)n2nc(C)c3c(N)ncnc32)cc(Cl)c(C)c1C1CN(CC(C)C)C1 (racemic) [Example 7, 1-{1-[5-Chloro-3-(1-isobutylazetidin-3-yl)-2-methoxy-4-methylphenyl]ethyl}-3-methyl-1H-pyrazolo[3,4-d]pyrimidin-4-amine]	> 8.00
COCCN1CC(c2c(C)c(Cl)cc(C(C)n3nc(C)c4c(N)ncnc43)c2OC)C1 (racemic) [Example 9, 1-(1-{5-Chloro-2-methoxy-3-[1-(2-methoxyethyl)azetidin-3-yl]-4-methylphenyl}ethyl)-3-methyl-1H-pyrazolo[3,4-d]pyrimidin-4-amine]	> 8.00
CNC(=O)N1CC(c2c(C)c(Cl)cc(C(C)n3nc(C)c4c(N)ncnc43)c2OC)C1 (racemic) [Example 10, 3-{3-[1-(4-Amino-3-methyl-1H-pyrazolo[3,4-d]pyrimidin-1-yl)ethyl]-5-chloro-2-methoxy-6-methylphenyl}-N-methylazetidine-1-carboxamide]	> 8.00
COc1c(C(C)n2nc(C)c3c(N)ncnc32)cc(Cl)c(C)c1-c1ccnc(C(=O)NCCO)c1 (racemic) [Example 18, 4-{3-[1-(4-Amino-3-methyl-1H-pyrazolo[3,4-d]pyrimidin-1-yl)ethyl]-5-chloro-2-methoxy-6-methylphenyl}-N-(2-hydroxyethyl)pyridine-2-carboxamide]	> 8.00
COc1c(C(C)n2nc(C)c3c(N)ncnc32)cc(Cl)c(C)c1-c1ccnc(C(=O)N(C)CCO)c1 (racemic) [Example 19, 4-{3-[1-(4-amino-3-methyl-1H-pyrazolo[3,4-d]pyrimidin-1-yl)ethyl]-5-chloro-2-methoxy-6-methylphenyl}-N-(2-hydroxyethyl)-N-methylpyridine-2-carboxamide]	> 8.00
CCOc1c(C(C)n2nc(C)c3c(N)ncnc32)cc(Cl)c(C)c1C1CN(CCO)C1 (racemic) [Example 95, 2-(3-{3-[1-(4-Amino-3-methyl-1H-pyrazolo[3,4-d]pyrimidin-1-yl)ethyl]-5-chloro-2-ethoxy-6-methylphenyl}azetidin-1-yl)ethanol bis(trifluoroacetate)]	> 8.00
CCOc1c(C(C)n2nc(C)c3c(N)ncnc32)cc(Cl)c(F)c1C1CN(CC(F)(F)F)C1 (racemic) [Example 141, 1-(1-{5-Chloro-2-ethoxy-4-fluoro-3-[1-(2,2,2-trifluoroethyl)azetidin-3-yl]phenyl}ethyl)-3-methyl-1H-pyrazolo[3,4-d]pyrimidin-4-amine]	> 8.00
COc1c(C(C)n2nc(C)c3c(N)ncnc32)cc(Cl)c(C)c1C1CCN(C)CC1 (racemic) [Example 163, 1-{1-[5-Chloro-2-methoxy-4-methyl-3-(1-methylpiperidin-4-yl)phenyl]ethyl}-3-methyl-1H-pyrazolo[3,4-d]pyrimidin-4-amine]	> 8.00
CCOc1c(C(C)n2nc(C)c3c(N)ncnc32)cc(Cl)c(C#N)c1-c1ccc(C(C)(C)O)nc1 (racemic) [Example 316, 4-[1-(4-amino-3-methyl-1H-pyrazolo[3,4-d]pyrimidin-1-yl)ethyl]-6-chloro-3-ethoxy-2-[6-(1-hydroxy-1-methylethyl)pyridin-3-yl]benzonitrile]	> 8.00
CCOc1c(C(C)n2nc(C)c3c(N)ncnc32)cc(Cl)c(C#N)c1N1CCCC1 (racemic) [Example 318, 4-[1-(4-amino-3-methyl-1H-pyrazolo[3,4-d]pyrimidin-1-yl)ethyl]-6-chloro-3-ethoxy-2-pyrrolidin-1-ylbenzo nitrile]	> 8.00
CCOc1c(C(C)n2nc(C)c3c(N)ncnc32)cc(Cl)c(C#N)c1N1CC(OC)C1 (racemic) [Example 319, 4-[1-(4-amino-3-methyl-1H-pyrazolo[3,4-d]pyrimidin-1-yl)ethyl]-6-chloro-3-ethoxy-2-(3-methoxyazetidin-1-yl)benzonitrile]	> 8.00
CCOc1c(C(C)n2nc(C)c3c(N)ncnc32)cc(C)c(C#N)c1C1CN(C(C)C)C1 (racemic) [Example 320, 4-[1-(4-amino-3-methyl-1H-pyrazolo[3,4-d]pyrimidin-1-yl)ethyl]-3-ethoxy-2-(1-isopropylazetidin-3-yl)-6-methylbenzonitrile]	> 8.00
COc1c(C(C)n2nc(C)c3c(N)ncnc32)cc(Cl)c(C)c1C1CNC(=O)CO1 (single isomer, unassigned) [324 (2nd peak), 6-{3-[1-(4-Amino-3-methyl-1H-pyrazolo[3,4-d]pyrimidin-1-yl)ethyl]-5-chloro-2-methoxy-6-methylphenyl}morpholin-3-one]	> 8.00

More lines, now with the values ahead:

pIC50	Molecule
> 8.00	1-(1-(5-chloro-2-methoxy-4-methyl-3-(pyrimidin-5-yl)phenyl)ethyl)-3-methyl-1H-pyrazolo[3,4-d]pyrimidin-4-amine [Example 168]
> 8.00	CCN1CC(c2c(C)c(Cl)cc(C(C)n3nc(C)c4c(N)ncnc43)c2OC)C1 (racemic) [Example 6, 1-{1-[5-Chloro-3-(1-ethylazetidin-3-yl)-2-methoxy-4-methylphenyl]ethyl}-3-methyl-1H-pyrazolo[3,4-d]pyrimidin-4-amine]
> 8.00	CNC(=O)c1cc(-c2c(C)c(Cl)cc(C(C)n3nc(C)c4c(N)ncnc43)c2OC)ccn1 (racemic) [Example 17, 4-(3-(1-(4-amino-3-methyl-1H-pyrazolo[3,4-c]pyrimidin-1-yl)ethyl)-5-chloro-2-methoxy-6-methylphenyl)-N-methylpicolinamide]
> 8.00	CCOc1c(C(C)n2nc(C)c3c(N)ncnc32)cc(Cl)c(C#N)c1-c1cncc(S(C)(=O)=O)c1 (racemic) [Example 43, 4-[1-(4-amino-3-methyl-1H-pyrazolo[3,4-d]pyrimidin-1-yl)ethyl]-6-chloro-3-ethoxy-2-[5-(methylsulfonyl)pyridin-3-yl]benzonitrile]
> 8.00	CCOc1c(C(C)n2nc(C)c3c(N)ncnc32)cc(Cl)c(C#N)c1-c1ccc(C(=O)N(C)C)nc1 (racemic) [Example 44, 5-(3-(1-(4-amino-3-methyl-1H-pyrazolo[3,4-d]pyrimidin-1-yl)ethyl)-5-chloro-6-cyano-2-ethoxyphenyl)-N,N-dimethylpicolinamide]
> 8.00	COc1c(C(C)n2nc(C)c3c(N)ncnc32)cc(Cl)c(F)c1C1CN(CCO)C1 (racemic) [Example 71, 2-(3-{3-[1-(4-Amino-3-methyl-1H-pyrazolo[3,4-d]pyrimidin-1-yl)ethyl]-5-chloro-6-fluoro-2-methoxyphenyl}azetidin-1-yl)ethanol]
> 8.00	CCOc1c(C(C)n2nc(C)c3c(N)ncnc32)cc(Cl)c(F)c1C1CN(CC(C)(C)O)C1 (racemic) [Example 140, 1-(3-{3-[1-(4-Amino-3-methyl-1H-pyrazolo[3,4-d]pyrimidin-1-yl)ethyl]-5-chloro-2-ethoxy-6-fluorophenyl}azetidin-1-yl)-2-methylpropan-2-ol]
> 8.00	COc1c(C(C)n2nc(C)c3c(N)ncnc32)cc(Cl)c(C)c1C1CCN(CC(C)(C)O)CC1 (racemic) [Example 164, 1-(4-{3-[1-(4-Amino-3-methyl-1H-pyrazolo[3,4-d]pyrimidin-1-yl)ethyl]-5-chloro-2-methoxy-6-methylphenyl}piperidin-1-yl)-2-methylpropan-2-ol]
> 8.00	COc1c(C(C)n2nc(C)c3c(N)ncnc32)cc(Cl)c(C)c1-c1cnn(CCO)c1 (single isomer, unassigned) [20 (1st peak), 2-(4-(3-(1-(4-Amino-3-methyl-1H-pyrazolo[3,4-d]pyrimidin-1-yl)ethyl)-5-chloro-2-methoxy-6-methylphenyl)-1H-pyrazol-1-yl)ethanol]
> 8.00	CCOc1c(C(C)n2nc(C)c3c(N)ncnc32)cc(C)c(C#N)c1C1CN(C(=O)C(C)(C)O)C1 (single isomer, unassigned) [322 (1st peak), 4-[1-(4-amino-3-methyl-1H-pyrazolo[3,4-d]pyrimidin-1-yl)ethyl]-3-ethoxy-2-[1-(2-hydroxy-2-methylpropanoyl)azetidin-3-yl]-6-methylbenzonitrile]
> 8.00	COc1c(C(C)n2nc(C)c3c(N)ncnc32)cc(Cl)c(C)c1C1CN(C(C)C)C1 (single isomer, unassigned) [Example 1, 1-{1-[5-Chloro-3-(1-isopropylazetidin-3-yl)-2-methoxy-4-methylphenyl]ethyl}-3-methyl-1H-pyrazolo[3,4-d]pyrimidin-4-amine bis(trifluoroacetate)]

From patent US9932341B2, “Use of pyrazolopyrimidine derivatives for the treatment of PI3K-delta related disorders” (Incyte Corporation, priority 2013, dated 2018)
